Experimental data from ChEMBL document CHEMBL1201862, “PubChem BioAssay data set” (2004).
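Each compound was tested at five concentrations against cells in 96-well plates for 48 hours. GI50 is the concentration that inhibits growth by half.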 Calls of active or inactive are those of the source. No stated cut-off is given here; in the data, active = GI50 up to about 1.1 µM and inactive = higher.

Assays:
Assay in all cases: NCI anticancer screen, dose series, 48 h
[1] = tested on: 786-0
[2] = tested on: A498
[3] = tested on: A549
[4] = tested on: ACHN
[5] = tested on: BT-549
[6] = tested on: CAKI-1
[7] = tested on: CCRF-CEM
[8] = tested on: COLO 205
[9] = tested on: DU-145
[10] = tested on: EKVX
[11] = tested on: HCC 2998
[12] = tested on: HCT-116
[13] = tested on: HCT-15
[14] = tested on: HOP-62
[15] = tested on: HOP-92
[16] = tested on: HT-29
[17] = tested on: Hs-578T
[18] = tested on: IGROV-1
[19] = tested on: K562
[20] = tested on: KM12
[21] = tested on: LOX IMVI
[22] = tested on: M14
[23] = tested on: MCF7
[24] = tested on: MDA-MB-231
[25] = tested on: MDA-MB-435
[26] = tested on: MDA-N
[27] = tested on: MOLT-4
[28] = tested on: Malme-3M
[29] = tested on: NCI-H226
[30] = tested on: NCI-H23
[31] = tested on: NCI-H460
[32] = tested on: NCI-H522
[33] = tested on: NCI/ADR-RES
[34] = tested on: OVCAR-3
[35] = tested on: OVCAR-4
[36] = tested on: OVCAR-5
[37] = tested on: OVCAR-8
[38] = tested on: PC-3
[39] = tested on: RPMI-8226
[40] = tested on: RXF 393
[41] = tested on: SF-268
[42] = tested on: SF-295
[43] = tested on: SF-539
[44] = tested on: SK-MEL-28
[45] = tested on: SK-MEL-2
[46] = tested on: SK-MEL-5
[47] = tested on: SK-OV-3
[48] = tested on: SN12C
[49] = tested on: SNB-19
[50] = tested on: SNB-75
[51] = tested on: SR
[52] = tested on: SW-620
[53] = tested on: T47D
[54] = tested on: TK-10
[55] = tested on: U-251
[56] = tested on: UACC-257
[57] = tested on: UACC-62
[58] = tested on: UO-31

Measured: GI50

C[N+]12C=CC=C1C(N1CCCC1)c1scc(-c3ccc(Br)cc3)c12 (stereo not given)
> 90.8 µM: [13]
inactive: [1] 16.7 µM | [2] 47.2 µM | [3] 74.1 µM | [4] > 88.9 µM | [5] 1.79 µM | [6] > 62.5 µM | [7] 18.2 µM | [8] 12.5 µM | [9] 33.7 µM | [10] 20.1 µM | [11] 12.4 µM | [12] 30.9 µM | [14] 14.8 µM | [15] 12 µM | [16] 22.2 µM | [17] 1.98 µM | [18] 4.58 µM | [19] 6.7 µM | [20] 12.1 µM | [21] 25.5 µM | [22] 27.7 µM | [23] 22.9 µM | [24] 23.9 µM | [25] 24 µM | [26] 27 µM | [27] 15.8 µM | [28] 9.4 µM | [29] 3.15 µM | [30] 3.49 µM | [31] 14.6 µM | [32] 1.64 µM | [33] > 100 µM | [34] 6.38 µM | [35] 35.3 µM | [36] 42.1 µM | [37] 4.11 µM | [38] 21 µM | [39] 3.01 µM | [40] 10.2 µM | [41] 3.15 µM | [42] 6.4 µM | [43] 4 µM | [44] 19 µM | [45] 6.18 µM | [46] 4.68 µM | [47] > 81.7 µM | [48] 3.02 µM | [49] 4.22 µM | [50] 3.1 µM | [51] 4.81 µM | [52] 41.2 µM | [53] 4.61 µM | [54] 91.2 µM | [55] 2.09 µM | [56] 7.36 µM | [57] 19.2 µM | [58] > 100 µM

Cc1cc(N2CCCCC2)nc2ccc(Cc3ccc4nc(N5CCCCC5)cc(C)c4c3)cc12
inactive: [1] > 100 µM | [2] > 100 µM | [3] > 100 µM | [4] > 100 µM | [5] > 100 µM | [6] > 100 µM | [8] 44.5 µM | [9] > 100 µM | [10] 18.2 µM | [11] 22.8 µM | [12] 98.9 µM | [14] > 100 µM | [15] > 100 µM | [16] 23.6 µM | [17] > 100 µM | [18] > 100 µM | [19] 32.1 µM | [20] > 100 µM | [21] > 100 µM | [22] > 100 µM | [23] > 100 µM | [24] > 100 µM | [25] > 100 µM | [26] > 100 µM | [27] > 100 µM | [28] > 100 µM | [29] > 100 µM | [30] > 100 µM | [31] > 100 µM | [32] 83.2 µM | [33] > 100 µM | [34] > 100 µM | [35] > 100 µM | [36] > 100 µM | [37] > 100 µM | [38] > 100 µM | [39] 35.8 µM | [40] > 100 µM | [41] > 100 µM | [42] > 100 µM | [43] > 100 µM | [44] > 100 µM | [45] > 100 µM | [46] 48.4 µM | [47] > 100 µM | [48] > 100 µM | [49] > 100 µM | [50] > 100 µM | [51] 24.2 µM | [52] > 100 µM | [53] 60.7 µM | [54] > 100 µM | [55] > 100 µM | [56] 53.6 µM | [57] > 100 µM | [58] > 100 µM
79.6 µM: [13]
